Assay: Comparative bulk density determination
Format: physicochemical
Conditions: for Bulk density: powder sample

CCCCC(=O)N(Cc1ccc(-c2ccccc2-c2nnn[nH]2)cc1)[C@H](C(=O)O)C(C)C [Amorphous valsartan, (S)-N-(1-Carboxy-2-methyl-prop-1-yl)-N-pentanoyl-N-[2′-(1H-tetrazol-5-yl)bi-phenyl-4-ylmethyl]-amine]
Tapped density (1250 taps): 0.504 gm/ml
Bulk density: 0.37 gm/ml

CCCCC(=O)N(Cc1ccc(-c2ccccc2-c2nnn[nH]2)cc1)[C@H](C(=O)O)C(C)C [Form D, (S)-N-(1-Carboxy-2-methyl-prop-1-yl)-N-pentanoyl-N-[2′-(1H-tetrazol-5-yl)bi-phenyl-4-ylmethyl]-amine]
Tapped density (1250 taps) (listed as ‘Form D’ Vlasartan): 0.6139 gm/ml
Bulk density (listed as ‘Form D’ Vlasartan): 0.4561 gm/ml

— patent publication US20080261959A1, “Novel crystalline forms of (S)-N-(1-Carboxy-2-methyl-prop-1-y)-N-pentanoyl-N[2'-(1H-tetrazol-5-yl)bi-phenyl-4-ylmethyl]-amine” (priority 2005, published 2008)
